In patent publication US6528516B1, “Methods for reducing intraocular pressure using A3 adenosine receptor antagonists” (Trustees of the University of Pennsylvania, The Center for …, priority 1998, dated 2003):
Entries after “also recorded” stand apart in the source; their conditions may differ.

What was measured:
[1] = test system: bovine pigmented ciliary epithelial (PE) cells; assay: Cell volume (shrinkage) of PE cells in isoosmotic suspension, Coulter Counter; format: cell-based
[2] = test system: bovine PE cells, Cl− currents; assay: Ruptured-patch whole-cell recording of PE cells; format: cell-based
Excerpt: Harvested cultured PE cells were resuspended and permitted to settle and attach to glass coverslips, which were then transferred to a perfusion chamber (Carré et al., supra., 1997). Solutions were designed to isolate any Cl^- current activated by ATP. […] (Am. J. Physiol., 261:[…]-[…], 1991), as previously described (Carré et al., supra., 1997). Cells were patched while still round, usually one day after dissociation. […] Data were acquired at 1 kHz using Axopatch-1B electronics and associated headstage (Axon Instruments, Foster City, Calif.) and filtered at 500 Hz with a Bessel filter. The micropipettes were double-pulled from Corning No. 7052 glass, coated with Sylgard and fire polished. The membrane potential was held without series-resistance compensation at 0 mV and stepped to voltages over the range from -100 to +100 mV in 20 mV increments for 200 msec periods. The mean current measured between 150-200 msec was used to obtain the patch-clamp data used here. The data presented in FIG. 2 was obtained at -60 mV [the approximate membrane potential (Green et al., Invest. Ophthalmol. Vis. Sci., 26:371-381, 1985)] to facilitate comparison with the volumetric data.

human A3 receptor [3] = target: T1, human A3 receptor (Homo sapiens, UniProt P0DMS8); assay: Radioligand binding, [125I]AB-MECA, HEK-293 cell membranes; parameters: host or cells: HEK-293; conditions: read-out: Ki(hA3)
T1 sequence (P0DMS8 1-318): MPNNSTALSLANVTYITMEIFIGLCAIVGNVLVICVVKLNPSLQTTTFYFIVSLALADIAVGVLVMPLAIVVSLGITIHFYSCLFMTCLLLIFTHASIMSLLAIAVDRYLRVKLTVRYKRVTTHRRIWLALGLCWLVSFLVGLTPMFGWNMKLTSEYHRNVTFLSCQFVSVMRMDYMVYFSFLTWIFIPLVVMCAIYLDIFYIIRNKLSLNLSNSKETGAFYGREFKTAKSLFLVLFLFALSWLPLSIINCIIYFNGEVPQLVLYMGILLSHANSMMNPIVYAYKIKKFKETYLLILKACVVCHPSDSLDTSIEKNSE
Experimental: Natl. Acad. Sci. […] Natl. Acad. Sci. U.S.A. 89:7432-7436, 1992) was performed as described at 4° C. (Olah et al., Mol. Pharmacol. 45:978-982, 1994). The assay medium consisted of a buffer containing 10 mM Mg^2+, 50 mM Tris, 3 units/mL adenosine deaminase, and 1 mM EDTA, at pH 8.0 (4° C.). […] Incubations were terminated by rapid filtration over Whatman GF/B filters, using a Brandell cell harvester (Brandell, Gaithersburg, MD). The tubes were rinsed three times with 3 mL buffer each. At least five different concentrations of competitor, spanning 3 orders of magnitude adjusted appropriately for the IC50 of each compound, were used. IC50 values, calculated with the nonlinear regression method implemented in the InPlot program (Graph-PAD, San Diego, Calif.), were converted to apparent Ki values using the Cheng-Prusoff equation (Cheng et al., Biochem.

A1 receptors = target: T2, A1 receptors (Rattus norvegicus, UniProt P25099); assay: Radioligand binding, [3H]R-PIA, rat cerebral cortex membranes
T2 construct: A1 receptors from rat cerebral cortex membranes; from tissue; host or cells: rat cerebral cortex membranes
T2 sequence (P25099 1-326): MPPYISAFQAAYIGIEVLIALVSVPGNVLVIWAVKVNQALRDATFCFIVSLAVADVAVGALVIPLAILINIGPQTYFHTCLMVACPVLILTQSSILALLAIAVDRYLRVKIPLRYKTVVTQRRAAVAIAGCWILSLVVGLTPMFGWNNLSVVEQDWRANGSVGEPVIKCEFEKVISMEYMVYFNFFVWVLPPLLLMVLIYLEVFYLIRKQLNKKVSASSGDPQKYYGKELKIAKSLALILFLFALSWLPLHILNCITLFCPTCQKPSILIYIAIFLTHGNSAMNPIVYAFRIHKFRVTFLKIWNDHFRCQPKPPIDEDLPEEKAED
Experimental: Radioligand binding studies. Binding of [^3H]R-N^6-phenylisopropyladenosine ([^3H]R-PIA) to A1 receptors from rat cerebral cortex membranes and of [^3H]-2-[4-[(2-carboxyethyl)phenyl]ethylamino]-5′-N-ethylcarbamoyladenosine ([^3H]CGS 21680) to A2A receptors from rat striatal membranes was performed as described previously (Schwabe et al., Naunyn Schmiedeberg Arch. Pharmacol. 313:179-187, 1980; Jarvis et al., J. Pharmacol. Exp. Ther. 251:888-893, 1989) Adenosine deaminase (3 units/mL) was present during the preparation of the brain membranes, in a pre-incubation of 30 min at 30° C., and during the incubation with the radioligands. Nonspecific binding was determined in the presence of 10 μM (A1 receptors) or 20 μM (A2A receptors)2-chloroadenosine.
All non-radioactive compounds were initially dissolved in DMSO, and diluted with buffer to the final concentration, where the amount of DMSO never exceeded 1%. Incubations were terminated by rapid filtration over Whatman GF/B filters, using a Brandell cell harvester (Brandell, Gaithersburg, MD). The tubes were rinsed three times with 3 mL buffer each.
At least five different concentrations of competitor, spanning 3 orders of magnitude adjusted appropriately for the IC50 of each compound, were used.

human A3 receptor [4] = target: T1, human A3 receptor; assay: Adenylate cyclase assay, CHO cell membranes, forskolin stimulated; format: biochemical
Water solubility = format: physicochemical; conditions: room temperature
Experimental: 100 μL of de-ionized water was saturated with 5 mg 11 with heating. After cooling to room temperature and the disappearance of turbidity, 50 μL of the clear supernatant was withdrawn and lyophilized to give 1.1 mg of 11.

Question: With `O=C(O)c1cc([N+](=O)[O-])ccc1NCCCc1ccccc1` [NPPB, 5-nitro-2-(3-phenylpropylamino)-benzoate] as the compound, how does the “effect of Cl− channel blocker on ATP, tamoxifen-activated shrinkage” value ([1]; DIDS 500 μM, NPPB 100 μM) read?
Answer: The value was “inhibited the volume reduction; also recorded: abolished the synergistic shrinkage”.

Question: And the “reduction of the ATP-enhanced currents” value ([2]; 100 μM NPPB, −60 mV)?
Answer: The value was 56±11%.

Question: What about the “effect of NPPB on ATP-stimulated current” value ([2]; FIG. 9B) of the same compound?
Answer: The value was “partially inhibited”.

Question: Which Ki (human A3 receptor [3]) does the source give for `CCOC(=O)C1=C(C2CCCC2)N(C)C(CC)=C(C(=O)SCC)C1CC` (stereo not shown) [Compound 25, 1-Methyl-2,4-diethyl-3-(ethylsulfanylcarbonyl)-5-ethyloxycarbonyl-6-cyclopentyl-1,4-dihydropyridine] here?
Answer: Its Ki is 6400 ± 780 nM.

Question: And the “displacement at rat A1 receptors” value (A1 receptors; at 100 μM)?
Answer: The value was 34 ±1%.

Question: Which “steady-state cell volume (v∞)” value ([1]; 3 μM ATP alone, FIG. 8B) does the source give for `Nc1ncnc2c1ncn2[C@@H]1O[C@H](COP(=O)(O)OP(=O)(O)OP(=O)(O)O)[C@@H](O)[C@H]1O` [ATP] here?
Answer: Its value is 98.0±0.4%.

Question: What about the “time constant of the shrinkage (τ)” value ([1]; 3 μM ATP alone, FIG. 8B) of the same compound?
Answer: Its value is 10.8 ± 4.9 min.

Question: What about the “steady-state cell volume (v∞)” value ([1]; 10 μM ATP alone, FIG. 8A) of the same compound?
Answer: The value was 94.3±0.3%.

Question: What about the “time constant of the shrinkage (τ)” value ([1]; 10 μM ATP alone, FIG. 8A) of the same compound?
Answer: Its value is 2.8 ± 0.7 min.

Question: What about the “steady-state cell volume (v∞)” value ([1]; 10 μM ATP alone, FIG. 8B) of the same compound?
Answer: Its value is 97.2±0.3%.

Question: What about the “time constant of the shrinkage (τ)” value ([1]; 10 μM ATP alone, FIG. 8B) of the same compound?
Answer: Its value is 1.6 ± 1.0 min.

Question: And the “steady-state cell volume (v∞)” value ([1]; 10 μM ATP alone, FIG. 10A)?
Answer: Its value is 97.2±0.3%.

Question: And the “time constant of the shrinkage (τ)” value ([1]; 10 μM ATP alone, FIG. 10A)?
Answer: Its value is 1.6 ± 1.0 min.

Question: And the “steady-state cell volume (v∞)” value ([1]; 100 μM ATP alone, FIG. 8A)?
Answer: Its value is 94.3±0.3%.

Question: And the “time constant of the shrinkage (τ)” value ([1]; 100 μM ATP alone, FIG. 8A)?
Answer: The value was 2.8 ± 0.7 min.

Question: What about the “steady-state cell volume (v∞)” value ([1]; 100 μM ATP alone, FIG. 13A) of the same compound?
Answer: Its value is 94.9±1.0%.

Question: What about the “time constant of the shrinkage (τ)” value ([1]; 100 μM ATP alone, FIG. 13A) of the same compound?
Answer: The value was 45.2 ± 14.0 min.

Question: What about the “steady-state cell volume (v∞)” value ([1]; 100 μM ATP alone, FIG. 13B) of the same compound?
Answer: The value was 87.5±1.8%.

Question: And the “time constant of the shrinkage (τ)” value ([1]; 100 μM ATP alone, FIG. 13B)?
Answer: The value was 45.2 ± 14.0 min.

Question: What about the “steady-state cell volume (v∞)” value ([1]; 100 μM ATP alone, FIG. 13C) of the same compound?
Answer: The value was 93.9±1.7%.

Question: What about the “time constant of the shrinkage (τ)” value ([1]; 100 μM ATP alone, FIG. 13C) of the same compound?
Answer: Its value is 34.8 ± 13.8 min.

Question: And the “steady-state cell volume (v∞)” value ([1]; 100 μM ATP alone, FIG. 14B)?
Answer: Its value is 96.8±0.5%.

Question: And the “time constant of the shrinkage (τ)” value ([1]; 100 μM ATP alone, FIG. 14B)?
Answer: Its value is 8.3 ± 3.7 min.

Question: And the “steady-state cell volume (v∞)” value ([1]; 10 mM ATP alone, FIG. 10A)?
Answer: The value was 97.7±0.2%.

Question: And the “time constant of the shrinkage (τ)” value ([1]; 10 mM ATP alone, FIG. 10A)?
Answer: Its value is 2.2 ± 0.8 min.

Question: And the “share of volumetric studies in which ATP alone produced shrinkage” value ([1]; ATP alone)?
Answer: The value was “approximately 15%”.

Question: And the EC50 ([1]; in the presence of tamoxifen, read-out: ATP concentration eliciting approximately half-maximal response)?
Answer: The EC50 was about 3000 nM.

Question: And the “effect of ATP on whole-cell current” value ([2]; 1 mM ATP, holding potential −60 mV, cultured bovine PE cell)?
Answer: Its value is “reversible and reproducible increases in inward current”.

Question: What about the “trials with current activated by ATP” value ([2]; cultured PE cells) of the same compound?
Answer: The value was 10/17.

Question: What about the “trials with current activated by ATP” value ([2]; fresh bovine PE cells) of the same compound?
Answer: Its value is 3/9.

Question: For `CCCOC(=O)c1c(CCSC(C)=O)c(C(=O)SCC)c(CC)[n+](C)c1-c1ccccc1` [Compound 18, 1-Methyl-2-ethyl-4-(2-acetylthioethyl)-3-(ethylsulfanylcarbonyl)-5-propyloxycarbonyl-6-phenylpyridinium Iodide], which Ki (human A3 receptor [3]) is on record?
Answer: The Ki was 538 nM.

Question: Which results are given for `CCOC(=O)c1c(CC)c(C(=O)SCC)c(CC)[n+](C)c1-c1ccccc1.[I-]` [Compound 11, 1-Methyl-2,4-Diethyl-3-(ethylsulfanylcarbonyl)-5-ethyloxycarbonyl-6-phenylpyridinium Iodide]?
Answer: KB relative to the Ki value in binding to human A3 receptors (human A3 receptor [4]): approximately 1.8 times; shift of the IB-MECA concentration response curve to the right (human A3 receptor [4]; 10 μM of 11): 26 fold; Kb (human A3 receptor [4]; read-out: KB value (Schild analysis)): 399 nM; Ki (human A3 receptor [3]): 219 nM; solubility (Water solubility; de-ionized water, water, thermodynamic from solid): 42.8 mM; water solubility (Water solubility; listed as MRS 1649): 43 mM

Question: With `CCCCc1c(C(=O)SCC)c(CC)c(C(=O)OCC)c(-c2ccccc2)[n+]1C` [Compound 20, 1-Methyl-2-butyl-4-ethyl-3-(ethylsulfanylcarbonyl)-5-ethyloxycarbonyl-6-phenylpyridinium Iodide] as the compound, how does the Ki (human A3 receptor [3]) read?
Answer: The Ki was 436 nM.

Question: Which results are given for `CCOC(=O)c1c(CC)c(C(=O)SCC)c(CC)[n+](C)c1C1CCCC1` [Compound 23, 1-Methyl-2,4-diethyl-3-(ethylsulfanylcarbonyl)-5-ethyloxycarbonyl-6-cyclopentylpyridinium Iodide]?
Answer: Ki (human A3 receptor [3]): 695 nM; Ki (A1 receptors): 11500 nM
